From the supplement of paper PMC5908809

Key:
[1] = tested on: normal NK cells expanded with K562-aAPC; experiment: drug sensitivity score (DSS) (DSS units); higher = more sensitive; extreme values may be limits of the assay; conditions: 72 h; IL-2 2.5 ng/mL
Method: (§1)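 Drug sensitivity and resistance testing on K562-aAPC-expanded normal NK cells: 5 concentrations (10-fold steps over a 10,000-fold range), 72 h at 37 °C, viability by CellTiter-Glo normalised to DMSO and benzethonium chloride controls; DSS from the fitted curve.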

NK-92 (IL-2 2.5 ng/mL) [2] = experiment: as above; conditions: 72 h
IMC-1 (IL-2 20 ng/mL) [3] = experiment: as above; conditions: 72 h
KHYG-1 (IL-2 2.5 ng/mL) [4] = experiment: as above; conditions: 72 h
KAI3 (IL-2 2.5 ng/mL) [5] = experiment: as above; conditions: 72 h
[6] = tested on: normal primary NK cells, pool 3 (3 donors) (IL-2 2.5 ng/mL); experiment: as above; conditions: 72 h
[7] = tested on: normal primary NK cells, pool 2 (3 donors) (IL-2 2.5 ng/mL); experiment: as above; conditions: 72 h
[8] = tested on: normal primary NK cells, pool 1 (3 donors), resting (IL-2 0 ng/mL); experiment: as above; conditions: 72 h
YT (IL-2 2.5 ng/mL) [9] = experiment: as above; conditions: 72 h
NKL (IL-2 2.5 ng/mL) [10] = experiment: as above; conditions: 72 h
SNK-6 (IL-2 2.5 ng/mL) [11] = experiment: as above; conditions: 72 h
NK-YS (IL-2 2.5 ng/mL) [12] = experiment: as above; conditions: 72 h
[13] = tested on: normal primary NK cells, pool 1 (3 donors) (IL-2 2.5 ng/mL); experiment: as above; conditions: 72 h
DERL-7 (IL-2 2.5 ng/mL) [14] = experiment: as above; conditions: 72 h
NK-92 (IL-2 2.5 ng/mL) [15] = experiment: percent inhibition of viability; higher = more inhibition; conditions: 72 h
IMC-1 (IL-2 20 ng/mL) [16] = experiment: as above; conditions: 72 h
KHYG-1 (IL-2 2.5 ng/mL) [17] = experiment: as above; conditions: 72 h
KAI3 (IL-2 2.5 ng/mL) [18] = experiment: as above; conditions: 72 h
[19] = tested on: normal primary NK cells, pool 3 (3 donors) (IL-2 2.5 ng/mL); experiment: as above; conditions: 72 h
[20] = tested on: normal primary NK cells, pool 2 (3 donors) (IL-2 2.5 ng/mL); experiment: as above; conditions: 72 h
[21] = tested on: normal primary NK cells, pool 1 (3 donors), resting (IL-2 0 ng/mL); experiment: as above; conditions: 72 h
YT (IL-2 2.5 ng/mL) [22] = experiment: as above; conditions: 72 h
NKL (IL-2 2.5 ng/mL) [23] = experiment: as above; conditions: 72 h
SNK-6 (IL-2 2.5 ng/mL) [24] = experiment: as above; conditions: 72 h
NK-YS (IL-2 2.5 ng/mL) [25] = experiment: as above; conditions: 72 h
[26] = tested on: normal primary NK cells, pool 1 (3 donors) (IL-2 2.5 ng/mL); experiment: as above; conditions: 72 h
DERL-7 (IL-2 2.5 ng/mL) [27] = experiment: as above; conditions: 72 h
[28] = tested on: normal NK cells expanded with K562-aAPC; experiment: as above; conditions: 72 h, IL-2 2.5 ng/mL
Method: as §1

CCn1c(=O)c(-c2cc[nH]n2)cc2c(C)nc(N)nc21 [Voxtalisib] (max concentration tested 10000 nM)
Conditions	drug sensitivity score
DERL-7 (IL-2 2.5 ng/mL) [14]	13.8
IMC-1 (IL-2 20 ng/mL) [3]	0.15
KAI3 (IL-2 2.5 ng/mL) [5]	9.29
KHYG-1 (IL-2 2.5 ng/mL) [4]	7.22
NK-92 (IL-2 2.5 ng/mL) [2]	10.7
NK-YS (IL-2 2.5 ng/mL) [12]	7.02
NKL (IL-2 2.5 ng/mL) [10]	10.1
SNK-6 (IL-2 2.5 ng/mL) [11]	3.96
YT (IL-2 2.5 ng/mL) [9]	9.92
[1]	7.48
[6]	4.03
[7]	4.74
[8]	5.05
[13]	6.3

percent inhibition of viability [%]
Conditions	1 nM	10 nM	100 nM	1000 nM	10000 nM
DERL-7 (IL-2 2.5 ng/mL) [27]	5.41	4.21	13.1	64	90.5
IMC-1 (IL-2 20 ng/mL) [16]	-10.6	-2.45	-10.8	-9.7	16.3
KAI3 (IL-2 2.5 ng/mL) [18]	-4.78	-4.19	6.21	42.3	75.8
KHYG-1 (IL-2 2.5 ng/mL) [17]	-9	-5.41	-5.59	17.8	79.4
NK-92 (IL-2 2.5 ng/mL) [15]	-8.65	11.8	10.3	47.6	82.8
NK-YS (IL-2 2.5 ng/mL) [25]	-5.07	0.15	3.01	23.8	69.5
NKL (IL-2 2.5 ng/mL) [23]	-8.64	-12.9	-1.2	46.7	80.6
SNK-6 (IL-2 2.5 ng/mL) [24]	-15.8	-23.8	-25.5	-0.25	72.2
YT (IL-2 2.5 ng/mL) [22]	-4.53	-3.54	0.98	38.7	88.6
[19]	-5.2	-0.71	13.1	17.8	35.1
[20]	-10.4	2.91	12.1	20.6	40.3
[21]	-7.13	11.3	7.69	23	43.4
[26]	-5.05	2.34	10.6	28.2	49.9
[28]	0.41	-5.61	9.15	33.9	60.2

CCOc1ccn(-c2ccc(F)cc2)c(=O)c1C(=O)Nc1ccc(Oc2ccnc(N)c2Cl)c(F)c1 (max concentration tested 2500 nM)
Conditions	drug sensitivity score
DERL-7 (IL-2 2.5 ng/mL) [14]	0
IMC-1 (IL-2 20 ng/mL) [3]	1.25
KAI3 (IL-2 2.5 ng/mL) [5]	0.35
KHYG-1 (IL-2 2.5 ng/mL) [4]	0
NK-92 (IL-2 2.5 ng/mL) [2]	0.14
NK-YS (IL-2 2.5 ng/mL) [12]	0.06
NKL (IL-2 2.5 ng/mL) [10]	0
SNK-6 (IL-2 2.5 ng/mL) [11]	0.23
YT (IL-2 2.5 ng/mL) [9]	1.85
[1]	0
[6]	0
[7]	0
[8]	0
[13]	0

percent inhibition of viability [%]
Conditions	0.25 nM	2.5 nM	25 nM	250 nM	2500 nM
DERL-7 (IL-2 2.5 ng/mL) [27]	0.56	6.06	-1.35	-3.94	-13.7
IMC-1 (IL-2 20 ng/mL) [16]	1.35	4.61	9.25	10.7	18.1
KAI3 (IL-2 2.5 ng/mL) [18]	-2.82	-5.11	1.22	-8.32	20.1
KHYG-1 (IL-2 2.5 ng/mL) [17]	2.8	3.63	7.75	3.92	7.23
NK-92 (IL-2 2.5 ng/mL) [15]	3.4	-2.02	21.5	-9.18	16.5
NK-YS (IL-2 2.5 ng/mL) [25]	2.13	-0.09	0.55	-3.25	13.2
NKL (IL-2 2.5 ng/mL) [23]	-8.21	-0.56	-2.88	6.9	-2.79
SNK-6 (IL-2 2.5 ng/mL) [24]	22.9	33.8	31.2	18.3	22.9
YT (IL-2 2.5 ng/mL) [22]	2.07	4.23	5.47	0.52	37
[19]	-11.7	1.36	-4.15	-4.08	-3.34
[20]	-3.75	2.69	-0.75	-6	3.09
[21]	1.56	-12.4	-1.07	-26.3	-16.3
[26]	0.3	-5.73	-0.6	-11.2	-8.87
[28]	2.01	1.6	-0.61	0.57	7.12
